Experiments:
Format in all cases: biochemical
Cathepsin K = target: T1, Cathepsin K (Homo sapiens, UniProt P43235); assay: Cathepsin K inhibition, fluorogenic peptide substrate kinetic assay (selectivity ratio vs cathepsin S); settings: ratio of cathepsin K inhibition constant to cathepsin S inhibition constant
T1 sequence (P43235 115-329): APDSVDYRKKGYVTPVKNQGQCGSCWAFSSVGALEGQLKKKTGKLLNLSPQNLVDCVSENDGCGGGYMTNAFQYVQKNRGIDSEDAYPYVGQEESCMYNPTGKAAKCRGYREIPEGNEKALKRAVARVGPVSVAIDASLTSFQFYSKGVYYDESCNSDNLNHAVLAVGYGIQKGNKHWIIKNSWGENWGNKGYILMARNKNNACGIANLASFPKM
Experimental: (§1) Kinetic measurements are performed in a total reaction volume of 30 μl in 384-well microtiter plates. […] Control reactions in the absence of inhibitor are performed in replicates of 24. The reactions are initiated by adding the substrate, acetyl-lysine-histidine-proline-lysine-amino carbamoyl coumarin, to a final concentration of 40 μM. The rate of substrate hydrolysis is measured by monitoring the increase in fluorescence at an excitation wavelength of 380 nm and an emission wavelength of 450 nm that results from cleavage of the aniline bond in the substrate by the enzyme. The apparent inhibition constants for the compounds are determined from the enzyme progress curves ([…]. Elrod, et al. Anal Biochem 2000, 286(1), 45-50) and are then used to calculate the inhibition constants for competitive inhibitors. Selectivity for cathepsin S in the presence of cathepsin isozymes was determined by the ratio of the cathepsin isozyme inhibition constant of a compound of the present invention to the cathepsin S inhibition constant of the same compound.

Cathepsin S = Cathepsin S (Homo sapiens, UniProt P25774); assay: Cathepsin S inhibition, fluorogenic peptide substrate kinetic assay; settings: Cathepsin S inhibition constant; read-out: Ki Cat. S
Chain of Cathepsin S (P25774 115-331, species assumed): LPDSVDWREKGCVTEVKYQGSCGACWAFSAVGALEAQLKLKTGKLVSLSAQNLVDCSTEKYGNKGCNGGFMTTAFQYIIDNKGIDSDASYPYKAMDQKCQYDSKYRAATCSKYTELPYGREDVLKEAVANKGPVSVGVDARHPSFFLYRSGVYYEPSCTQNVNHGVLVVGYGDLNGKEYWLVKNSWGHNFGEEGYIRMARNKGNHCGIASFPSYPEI
Experimental: (§2) The optimal substrate for cathepsin S, acetyl-histidine-proline-valine-lysine-amino carbamoyl coumarin, was identified from screening a combinatorial library of fluorogenic peptide substrates (Harris, J. L., B. J. Backes, et al. Proc Natl Acad Sci USA 2000, 97(14), 7754-9). Kinetic measurements are performed in a total reaction volume of 30 μl in 384-well microtiter plates. […] Control reactions in the absence of inhibitor are performed in replicates of 24. The reactions are initiated by adding the substrate, acetyl-histidine-proline-valine-lysine-amino carbamoyl coumarin, to a final concentration of 50 μM. The rate of substrate hydrolysis is measured by monitoring the increase in fluorescence at an excitation wavelength of 380 nm and an emission wavelength of 450 nm that results from cleavage of the aniline bond in the substrate by the enzyme. The apparent inhibition constants for the compounds are determined from the enzyme progress curves (Kuzmic, P., K. C. Elrod, et al. Anal Biochem 2000, 286(1), 45-50) and are then used to calculate the inhibition constants for competitive inhibitors.

Cathepsin L = Cathepsin L (Homo sapiens, UniProt P07711); assay: Cathepsin L inhibition, fluorogenic peptide substrate kinetic assay (selectivity ratio vs cathepsin S); settings: ratio of cathepsin L inhibition constant to cathepsin S inhibition constant
Chain of Cathepsin L (P07711 114-333, species assumed): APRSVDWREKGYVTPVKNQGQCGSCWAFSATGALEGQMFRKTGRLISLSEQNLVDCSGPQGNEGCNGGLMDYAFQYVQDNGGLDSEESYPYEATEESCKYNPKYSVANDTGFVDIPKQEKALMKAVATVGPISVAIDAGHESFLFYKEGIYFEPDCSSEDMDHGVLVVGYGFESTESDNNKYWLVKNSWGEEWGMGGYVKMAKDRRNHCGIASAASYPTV
Experimental: as §2, with “cathepsin L, acetyl-histidine-lysine-phenylalanine-lysine-amino” for “cathepsin S, acetyl-histidine-proline-valine-lysine-amino”, “substrate, acetyl-histidine-lysine-phenylalanine-lysine-amino” for “substrate, acetyl-histidine-proline-valine-lysine-amino”, “of 20” for “of 50”, “curves ([…].” for “curves (Kuzmic, P., K. C.”, “inhibitors. Selectivity for cathepsin S in the presence of cathepsin isozymes was determined by the ratio of the cathepsin isozyme inhibition constant of a compound of the present invention to the cathepsin S inhibition constant of the same compound.” for “inhibitors.”

Cathepsin B = Cathepsin B (Homo sapiens, UniProt P07858); assay: Cathepsin B inhibition, fluorogenic peptide substrate kinetic assay (selectivity ratio vs cathepsin S); settings: ratio of cathepsin B inhibition constant to cathepsin S inhibition constant
Experimental: as §1, with “acetyl-histidine-proline-valine-lysine-amino” for “acetyl-lysine-histidine-proline-lysine-amino”, “10” for “40”

SMILES	Selectivity for Cat. S over Cat. K (Cathepsin K)	Ki (Cathepsin S)	Selectivity for Cat. S over Cat. L (Cathepsin L)	Selectivity for Cat. S over Cat. B (Cathepsin B)
CC(C)(C)OC(=O)C[C@@H](CN1CCc2cc(F)ccc21)NC(=O)[C@H](CC1CCCCC1)Nc1nc2ccccc2o1 [Example 9, 3-(S)-[2-(S)-(Benzooxazol-2-ylamino)-3-cyclohexyl-propionylamino]-4-(5-fluoro-2,3-dihydro-indol-1-yl)-butyric acid tert-butyl ester]	++ (++, >100)	< 100 nM	++ (++, >100)	+++ (+++, >1000)
O=C(N[C@H](CNc1ccc(F)cc1)COCc1ccccc1)[C@H](CC1CCCCC1)Nc1nc2ccccc2o1 [Example 11, 2-(S)-(Benzooxazol-2-ylamino)-N-[1-(R)-benzyloxymethyl-2-(4-fluoro-phenylamino)-ethyl]-3-cyclohexyl-propionamide]	++ (++, >100)	< 100 nM	++ (++, >100)	++ (++, >100)
CC(C)(C)C[C@H](Nc1nc2ccccc2o1)C(=O)N[C@H](CN1CCc2cc(F)ccc21)CS(C)(=O)=O [Example 12, (S)-2-(Benzooxazol-2-ylamino)-4,4-dimethyl-pentanoic acid (R)-[2-(5-fluoro-2,3-dihydro-indol-1-yl)-1-methanesulfonylmethyl-ethyl]-amide]	++ (++, >100)	< 100 nM	+++ (+++, >1000)	+++ (+++, >1000)
O=C(NCCN1CCc2cc(F)ccc21)[C@H](CC1CCCCC1)Nc1nc2ccccc2s1 [Example 16, 2-(S)-(Benzothiazol-2-ylamino)-3-cyclohexyl-N-[2-(5-fluoro-2,3-dihydro-indol-1-yl)-ethyl]-propionamide]	++ (++, >100)	< 1000 nM	+ (+, >10)	++ (++, >100)

More lines, now with the values ahead:

Selectivity for Cat. S over Cat. K (Cathepsin K)	Ki (Cathepsin S)	Selectivity for Cat. S over Cat. L (Cathepsin L)	Selectivity for Cat. S over Cat. B (Cathepsin B)	SMILES
+++ (+++, >1000)	< 100 nM	++ (++, >100)	+++ (+++, >1000)	COc1ccc(NCCNC(=O)[C@H](CC2CCCCC2)Nc2nc3ccccc3s2)cc1 [Example 17, 2-(S)-(Benzothiazol-2-ylamino)-3-cyclohexyl-N-[2-(4-methoxy-phenylamino)-ethyl]-propionamide]
+ (+, >10)	< 10000 nM	+ (+, >10)	+ (+, >10)	CC(C)(C)C[C@H](Nc1cnccn1)C(=O)NCCN1CCc2cc(F)ccc21 [Example 18, (S)-4,4-Dimethyl-2-(pyrazin-2-ylamino)-pentanoic acid [2-(5-fluoro-2,3-dihydro-indol-1-yl)-ethyl]-amide]
+ (+, >10)	< 1000 nM	+ (+, >10)	++ (++, >100)	O=C(NCCNc1ccc(F)cc1)[C@H](CC1CCCCC1)Nc1nc2ccc(Cl)cc2s1 [Example 21, 2-(S)-(6-Chloro-benzothiazol-2-ylamino)-3-cyclohexyl-N-[2-(4-fluoro-phenylamino)-ethyl]-propionamide]
+++ (+++, >1000)	< 100 nM	++ (++, >100)	+++ (+++, >1000)	CCOC(=O)C[C@@H](CN1CCc2cc(F)ccc21)NC(=O)[C@H](CC1CCCCC1)Nc1nc2ccc(Cl)cc2s1 [Example 30, 3-(S)-[2-(S)-(6-Chloro-benzothiazol-2-ylamino)-3-cyclohexyl-propionylamino]-4-(5-fluoro-2,3-dihydro-indol-1-yl)-butyric acid ethyl ester]

Reference: patent US7307095B2, “Inhibitors of cathepsin S” (IRM LLC, priority 2003, dated 2007)
